The text below walks through data of patent publication US7691844B2, “Nonpeptide substituted spirobenzoazepines as vasopressin antagonists” (Ortho-McNeil Pharmaceutical, Inc., priority 2000, dated 2010).

For orientation: IC50 means the midpoint of a concentration-inhibition curve. Read a low IC50 as greater potency.

The target of one assay is human V2 receptor (Homo sapiens, UniProt P30518). The experiment in a line: In-vitro receptor binding assay (3H-arginine-8-vasopressin), V2. In outline:
(§1)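 Radioligand is 3H-arginine-8-vasopressin, incubated with receptor for one hour at room temperature, then filtered on GF/C plates and counted by scintillation. Non-specific binding was defined with 1.25 μM vasopressin, and results are given as % inhibition.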

Another assay has as its target V1a (Homo sapiens, UniProt P37288). Briefly: In-vitro receptor binding assay (3H-arginine-8-vasopressin), V1a. As to conditions: for inhibition at 0.1 µM / inhibition at 1 µM: read-out: Receptor Binding V1a (% Inh. @ concentration in μM). In outline:
as §1

Where [1] appears, read: @ 1 μM, read-out: Receptor Binding V2 (% Inh. @ concentration in μM).
Setting [2] is: read-out: Receptor Binding V2 (% Inh. @ concentration in μM).

Chain of human V2 receptor (P30518 whole entry): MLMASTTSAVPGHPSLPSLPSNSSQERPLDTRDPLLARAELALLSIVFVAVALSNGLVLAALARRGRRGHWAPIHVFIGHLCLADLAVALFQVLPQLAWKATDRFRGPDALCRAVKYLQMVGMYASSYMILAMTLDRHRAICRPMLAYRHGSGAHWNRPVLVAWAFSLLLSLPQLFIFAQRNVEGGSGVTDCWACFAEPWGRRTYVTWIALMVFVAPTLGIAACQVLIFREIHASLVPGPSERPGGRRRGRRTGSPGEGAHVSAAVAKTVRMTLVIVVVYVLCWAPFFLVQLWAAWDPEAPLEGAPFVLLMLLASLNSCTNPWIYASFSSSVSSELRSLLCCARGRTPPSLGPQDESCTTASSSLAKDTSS
Chain of V1a (P37288 whole entry): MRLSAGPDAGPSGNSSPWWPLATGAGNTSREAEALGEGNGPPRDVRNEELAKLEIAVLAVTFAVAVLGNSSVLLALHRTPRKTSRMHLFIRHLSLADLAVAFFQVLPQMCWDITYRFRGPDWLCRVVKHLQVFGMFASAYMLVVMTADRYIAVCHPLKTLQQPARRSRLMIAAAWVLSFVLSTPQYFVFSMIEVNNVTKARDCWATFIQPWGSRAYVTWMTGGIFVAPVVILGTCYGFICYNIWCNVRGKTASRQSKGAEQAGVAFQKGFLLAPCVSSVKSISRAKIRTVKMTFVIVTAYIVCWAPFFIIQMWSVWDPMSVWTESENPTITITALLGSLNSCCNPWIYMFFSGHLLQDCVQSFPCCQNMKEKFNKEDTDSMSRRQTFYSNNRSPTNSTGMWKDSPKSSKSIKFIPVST

`O=C(Nc1ccc(C(=O)N2CCC3(C=C(C(=O)N4CCN(c5ccncc5)CC4)CC3)Cc3ccccc32)cc1)c1ccccc1-c1ccccc1` (stereo not drawn) [Compound 145] showed an IC50 on human V2 receptor of 0.066 µM. Also, on V1a, the inhibition at 0.1 µM came to 66%.
`O=C(Nc1ccc(C(=O)N2CCC3(C=C(C(=O)N(CCN4CCOCC4)CCN4CCOCC4)CC3)Cc3ccccc32)cc1)c1ccccc1-c1ccccc1` (stereo not drawn) [Compound 146]: the inhibition at 0.1 µM on human V2 receptor (@ 0.1 μM, read-out: Receptor Binding V2 (% Inh. @ concentration in μM)) worked out at 39%; at V1a it was 48%.
For the compound `COC(=O)c1ccc(C(=O)N2Cc3ccccc3CC3(C=CCCC3)C2)cc1` (stereo not drawn) [Compound 149], the inhibition at 1 µM on human V2 receptor (setting [1]) worked out at 54%. The same compound displayed an IC50 at V1a of 0.56 µM.
As for `Cc1ccn(-c2ccc(C(=O)N3CCC4(C=CCCC4)Cc4ccccc43)cc2-n2ccc(C)n2)n1` (stereo not drawn) [Compound 151], on human V2 receptor (setting [1]), the inhibition at 1 µM was 20%. Also, the IC50 on V1a was found to be 0.042 µM.
On to `O=Cc1ccn(-c2ccc(C(=O)N3CCC4(C=CCCC4)Cc4ccccc43)cc2)c1` (stereo not drawn) [Compound 152], for which the inhibition at 1 µM at human V2 receptor (setting [1]) worked out at 13%. At V1a, the IC50 was 0.084 µM.
For `COc1ccc(C(=O)N2Cc3ccccc3CC3(C=CCCC3)C2)cc1OC` (stereo not drawn) [Compound 153] the same measures were 0% and 0.55 µM.
With `O=C(c1ccc(-n2ccc(CO)c2)cc1)N1CCC2(C=CCCC2)Cc2ccccc21` (stereo not drawn) [Compound 154], the inhibition at 1 µM on human V2 receptor (setting [1]) was 36%. This compound also had an IC50 on V1a of 0.025 µM.
For the compound `O=C(c1ccc(-n2cccn2)c(-n2cccn2)c1)N1CCC2(C=CCCC2)Cc2ccccc21` (stereo not drawn) [Compound 155], at human V2 receptor (setting [1]), the inhibition at 1 µM is 2%. In addition, the IC50 on V1a amounted to 0.13 µM.
Consider `O=C(c1ccc(-n2cccn2)c(F)c1)N1CCC2(C=CCCC2)Cc2ccccc21` (stereo not drawn) [Compound 156, 4-(3-Fluoro-4-(pyrazol-1-yl)benzoyl)-4-aza-[6,5]-spiro-[5,6]-benzododec-2′-ene], for which the inhibition at 1 µM at human V2 receptor (setting [1]) amounted to 13%. The compound also gave an IC50 at V1a of 0.11 µM.
Regarding `Cc1ccc(F)cc1C(=O)Nc1ccc(C(=O)N2CCC3(C=C(C(=O)NCCCN4CCCC4)CC3)Cc3ccccc32)cc1` (stereo not drawn) [Compound 157], the IC50 on human V2 receptor turned out to be 0.038 µM; on V1a, 0.016 µM.
Regarding `Cc1ccc(F)cc1C(=O)Nc1ccc(C(=O)N2CCC3(C=C(C(=O)NCCCN4CCOCC4)CC3)Cc3ccccc32)cc1` (stereo not drawn) [Compound 158], the IC50 is 0.039 µM at human V2 receptor and 0.016 µM at V1a.
Turning to `Cc1ccc(F)cc1C(=O)Nc1ccc(C(=O)N2CCC3(C=C(C(=O)NCCO)CC3)Cc3ccccc32)cc1` (stereo not drawn) [Compound 159], the IC50 was 0.047 µM at human V2 receptor and 0.011 µM at V1a.
With `Cc1ccc(F)cc1C(=O)Nc1ccc(C(=O)N2CCC3(C=C(C(=O)NCCN4CCCCC4)CC3)Cc3ccccc32)cc1` (stereo not drawn) [Compound 160], the values for the IC50 on human V2 receptor and at V1a were 0.082 µM and 0.011 µM, respectively.
For `Cc1ccc(F)cc1C(=O)Nc1ccc(C(=O)N2CCC3(C=C(C(=O)NCCN4CCCC4)CC3)Cc3ccccc32)cc1` (stereo not drawn) [Compound 161] the same measures were 0.072 µM and 0.01 µM.
On to `CCOC(=O)C1=CC2(CC1)CCN(C(=O)c1ccc(NC(=O)c3ccccc3C)cc1)c1ccccc1C2` (stereo not drawn) [Compound 162], for which, at human V2 receptor (setting [2]), the inhibition at 0.25 µM stood at 42%. Further, the IC50 at V1a worked out at 0.069 µM.
`O=C(c1ccc(-n2ccc(CO)c2)cc1Cl)N1CCC2(C=CCCC2)Cc2ccccc21` (stereo not drawn) [Compound 164]: at human V2 receptor (setting [2]), the inhibition at 0.25 µM came out at 20%. In addition, the IC50 on V1a came out at 0.114 µM.
In the case of `COc1cc(-n2ccc(CO)c2)ccc1C(=O)N1CCC2(C=CCCC2)Cc2ccccc21` (stereo not drawn) [Compound 165], the inhibition at 0.25 µM on human V2 receptor (setting [2]) was 25%. This compound also yielded an IC50 on V1a of 0.042 µM.
Regarding `COc1cc(-n2ccc(C=O)c2)ccc1C(=O)N1CCC2(C=CCCC2)Cc2ccccc21` (stereo not drawn) [Compound 166], on human V2 receptor (setting [2]), the inhibition at 0.225 µM is 5%. Besides, at V1a, the IC50 turned out to be 0.114 µM.
On the same counts, the results for `COc1cc(C(=O)N2CCC3(C=CCCC3)Cc3ccccc32)ccc1-n1ccc(C=O)c1` (stereo not drawn) [Compound 167, 4-(3-Methoxy-4-(pyrrol-1-yl-3-carboxaldehyde)benzoyl)-4-aza-[6,5]-spiro-[5,6]-benzododec-2′-ene] are 19% and 0.06 µM.
Turning to `CC(=O)N1CCC(Oc2ccc(C(=O)N3CCC4(C=CCCC4)Cc4ccccc43)cc2F)CC1` (stereo not drawn) [Compound 168, 4-(3-Fluoro-4-(N-acetylpiperidin-4-yloxy)benzoyl)-4-aza-[6,5]-spiro-[5,6]-benzododec-2′-ene], the inhibition at 1 µM at human V2 receptor (setting [1]) came to 0%. Further, on V1a, the inhibition at 0.1 µM is 50%.
As to `COC(=O)CN1CCC(Oc2ccc(C(=O)N3CCC4(C=CCCC4)Cc4ccccc43)cc2F)CC1` (stereo not drawn) [Compound 169], the inhibition at 1 µM on human V2 receptor (setting [1]) worked out at 0%. Further, the inhibition at 0.1 µM on V1a came out at 4%.
Take `COc1cc(NC(=O)c2cc(F)ccc2C)ccc1C(=O)N1CCC2(C=C(C=O)CC2)Cc2ccccc21` (stereo not drawn) [Compound 170]: the results for the IC50 on human V2 receptor and at V1a were 0.21 µM and 0.055 µM, respectively.
Regarding `CCCCN1CCC(Oc2ccc(C(=O)N3CCC4(C=CCCC4)Cc4ccccc43)cc2F)CC1` (stereo not drawn) [Compound 171], the inhibition at 1 µM at human V2 receptor (setting [1]) is 65%. The inhibition at 0.1 µM at V1a was found to be 24%.
Regarding `CC(=O)Oc1ccc(C(=O)N2CCC3(C=CCCC3)Cc3ccccc32)cc1` (stereo not drawn) [Compound 172], on human V2 receptor (setting [1]), the inhibition at 1 µM is 0%. Besides, the inhibition at 0.1 µM at V1a worked out at 15%.
In the case of `CC(C)CCN1CCC(Oc2ccc(C(=O)N3CCC4(C=CCCC4)Cc4ccccc43)cc2F)CC1` (stereo not drawn) [Compound 173], the inhibition at 1 µM on human V2 receptor (setting [1]) is 0%. Moreover, the inhibition at 0.1 µM at V1a stood at 0%.
Take `CCCCC(=O)N1CCC(Oc2ccc(C(=O)N3CCC4(C=CCCC4)Cc4ccccc43)cc2F)CC1` (stereo not drawn) [Compound 174]: the inhibition at 1 µM at human V2 receptor (setting [1]) was found to be 8%. Also, the inhibition at 0.1 µM on V1a was found to be 0%.
`COc1cc(NC(=O)c2cc(F)ccc2C)ccc1C(=O)N1CCC2(C=C(C(=O)O)CC2)Cc2ccccc21` (stereo not drawn) [Compound 175] displayed an IC50 at human V2 receptor of 0.11 µM. Besides, the inhibition at 0.1 µM on V1a stood at 15%.
`CC(=O)c1ccn(-c2ccc(C(=O)N3CCC4(C=CCCC4)Cc4ccccc43)cc2F)c1` (stereo not drawn) [Compound 177]: the inhibition at 1 µM on human V2 receptor (setting [1]) amounted to 30%. Besides, the IC50 at V1a turned out to be 0.044 µM.
On the same counts, the results for `COc1cc(C(=O)N2CCC3(C=CCCC3)Cc3ccccc32)ccc1-n1ccc(CO)c1` (stereo not drawn) [Compound 178, 4-[3-Methoxy-4-(3-hydroxymethylpyrrol-1-yl)benzoyl]-4-aza-[6,5]-spiro-[5,6]benzododec-2′-ene] are 53% and 0.013 µM.
On to `CC(C)CCOc1ccc(C(=O)N2CCC3(C=CCCC3)Cc3ccccc32)cc1` (stereo not drawn) [Compound 179], for which the inhibition at 1 µM on human V2 receptor (setting [1]) came out at 15%. Besides, the IC50 on V1a came out at 0.096 µM.
`O=C(c1ccc(OC2CCCC2)cc1)N1CCC2(C=CCCC2)Cc2ccccc21` (stereo not drawn) [Compound 180]: on human V2 receptor (setting [1]), the inhibition at 1 µM is 20%. Besides, at V1a, the IC50 was determined as 0.088 µM.
On the same counts, the results for `O=C(c1ccc(OCC2CC2)cc1)N1CCC2(C=CCCC2)Cc2ccccc21` (stereo not drawn) [Compound 181] are 31% and 0.066 µM.
For the compound `COc1cc(C(=O)N2CCC3(C=CCCC3)Cc3ccccc32)ccc1NC(=O)c1cc(F)ccc1C` (stereo not drawn) [Compound 182], the IC50 was 0.228 µM at human V2 receptor and 0.062 µM at V1a.
As for `O=C(c1ccc(OCC2CCCCC2)cc1)N1CCC2(C=CCCC2)Cc2ccccc21` (stereo not drawn) [Compound 183], on human V2 receptor (setting [1]), the inhibition at 1 µM worked out at 18%. Also, the IC50 at V1a worked out at 0.25 µM.
For `O=C(c1ccc(OCc2ccccc2)cc1)N1CCC2(C=CCCC2)Cc2ccccc21` (stereo not drawn) [Compound 184] the same measures were 34% and 0.086 µM.
In the case of `O=C(c1ccc(OC2CCCCC2)cc1)N1CCC2(C=CCCC2)Cc2ccccc21` (stereo not drawn) [Compound 185], the inhibition at 1 µM at human V2 receptor (setting [1]) worked out at 42%. Further, the IC50 on V1a came out at 0.23 µM.
For the compound `COc1cc(C(=O)N2CCC3(C=C(C(=O)NCCN(C)C)CC3)Cc3ccccc32)ccc1[N+](=O)[O-]` (stereo not drawn) [Compound 186, 4-(3-Methoxy-4-nitrobenzoyl)-4-aza-3′-[2-(N,N-dimethylamino)ethylcarboxamido]-[6,4]-spiro-[5,6]benzoundec-2′-ene], the values for the inhibition at 1 µM at human V2 receptor (setting [1]) and at V1a were 11% and 48%, respectively.
Consider `COc1cc(C(=O)N2CCC3(C=C(C(=O)NCCN(C)C)CC3)Cc3ccccc32)ccc1N` (stereo not drawn) [Compound 187, 4-(4-Amino-3-methoxybenzoyl)-4-aza-3′-[2-(N,N-dimethylamino)ethylcarboxamido]-[6,4]-spiro-[5,6]-benzoundec-2′-ene], for which the inhibition at 1 µM at human V2 receptor (setting [1]) stood at 7%; on V1a, 54%.
With `CCN(C(=O)NCCCN(C)C)C(=O)C1=CC2(CC1)CCN(C(=O)c1ccc(N)c(OC)c1)c1ccccc1C2` (stereo not drawn) [Compound 188], the figures for the inhibition at 1 µM on human V2 receptor (setting [1]) and on V1a were 3% and 27%, respectively.
With `COc1cc(C(=O)N2CCC3(C=C(C(=O)NCCN(C)C)CC3)Cc3ccccc32)ccc1-n1ccc(C=O)c1` (stereo not drawn) [Compound 189, 4-[3-Methoxy-4-(pyrrol-1-yl-3-carboxaldehyde)benzoyl]-3′-[2-(N,N-dimethylamino)ethylcarboxamido]-4-aza-[6,4]-spiro-[5,6]-benzoundec-2′-ene], at human V2 receptor (setting [1]), the inhibition at 1 µM was 13%. This compound had an IC50 at V1a of 0.045 µM.
Regarding `COc1cc(C(=O)N2CCC3(C=C(C(=O)NCCN(C)C)CC3)Cc3ccccc32)ccc1-n1ccc(CO)c1` (stereo not drawn) [Compound 190, 4-[3-Methoxy-4-(3-hydroxymethylpyrrol-1-yl)benzoyl]-3′-[2-(N,N-dimethylamino)ethylcarboxamido]-4-aza-[6,4]-spiro-[5,6]-benzoundec-2′-ene], the inhibition at 1 µM on human V2 receptor (setting [1]) worked out at 28%. This compound registered an IC50 at V1a of 0.008 µM.
`CN(C)CCNC(=O)C1=CC2(CC1)CCN(C(=O)c1ccc(N)cc1)c1ccccc1C2` (stereo not drawn) [Compound 191]: the “Receptor Binding V2 (% Inh. @ concentration in μM)” value on human V2 receptor (@ 1 μM) was 15% @ 1. This compound came in with an IC50 on V1a of 1.2 µM.
